From patent publication US5214070A, “Diaryl ether cycloalkanes” (Imperial Chemical Industries PLC, priority 1989, dated 1993)

System: 5-LO
Assay: Test b): A23187-challenged heparinised human blood, LTB4 radioimmunoassay
Assay type: cell-based
Conditions: A23187 challenge
Description: b) An in vitro assay system involving incubating a test compound with heparinised human blood, prior to challenge with the calcium ionophore A23187 and then indirectly measuring the inhibitory effects on 5-LO by assaying the amount of LTB4 using the specific radioimmunoassay described by Carey and Forder (F. Carey and R. A. Forder, Brit. J. Pharmacol. 1985, 84, 34P) which involves the use of a protein-LTB4 conjugate produced using the procedure of Young et alia (Prostaglandins, 1983, 26(4), 605-613). The effects of a test compound on the enzyme cyclooxygenase (which is involved in the alternative metabolic pathway for arachidonic acid and gives rise to prostaglandins, thromboxanes and related metabolites) may be measured at the same time using the specific radioimmunoassay for thromboxane B2 (TxB2) described by Carey and Forder (see above). This test provides an indication of the effects of a test compound against 5-LO and also cyclooxygenase in the presence of blood cells and proteins. It permits the selectivity of the inhibitory effect on 5-LO or cyclooxygenase to be assessed.

IC50 [nM] | Compound
~200 | CO[C@H]1CCC[C@@]1(OC)c1cc(F)cc(Sc2ccc3ccccc3c2)c1 (racemic) [(1RS,2SR)-1-[5-fluoro-3-(naphth-2-ylthio)phenyl]-1,2-dimethoxycyclopentane]
~200 | C=CCO[C@@]1(c2cc(F)cc(Sc3ccc4ccccc4c3)c2)CCC[C@@H]1OC (racemic) [(1RS,2SR)-1-allyloxy-1-[5-fluoro-3-(naphth-2-ylthio)phenyl]-2-methoxycyclopentane]
